Measured values taken from PMC6274005, “Interaction of Di-2-pyridylketone 2-pyridine Carboxylic Acid Hydrazone and Its Copper Complex with BSA: Effect on Antitumor Activity as Revealed by Spectroscopic Studies” (Molecules, 2016).

Key:
BSA [1] = target: T1, BSA (Bos taurus, UniProt P02769); experiment: Fluorescence quenching of BSA (Stern-Volmer, binding constants, van't Hoff thermodynamics); design: species or system bovine; settings: for number of binding sites n per BSA / Ksv (Stern-Volmer dynamic quenching constant) / ΔH of binding to BSA / ΔS of binding to BSA / ΔG of binding to BSA: pH 7.2; for Kq (quenching rate constant of biomolecule): calculated from Ksv with τ0 = 10^−8 s; for shift of BSA fluorescence emission upon addition of the agent: fluorescence titration, CBSA = 1.0 × 10^−5 M, pH 7.2, 288 K; for ΔH of binding to BSA / ΔS of binding to BSA: van't Hoff plot; for ΔG of binding to BSA: ΔG = ΔH − TΔS
Experimental: To investigate the possible mechanism responsible for fluorescence quenching, Stern–Volmer plots were used to interpret the spectral data. The procedure of fluorescence quenching was first assumed a dynamic quenching process. The dynamic quenching constant Ksv and the apparent biomolecular quenching rate constant Kq were calculated using the Stern–Volmer equation: (1) F0/F=1+Ksv[Q]=1+Kqτ0[Q] where, F0 and F are the steady-state fluorescence intensities in the absence and presence of a quencher, respectively; [Q] is the concentration of the quencher; Ksv is the Stern–Volmer dynamic quenching rate constant; τ0 is the fluorescence lifetime of the protein without the quencher, the average life of a fluorescence molecule is 10^−8 s; and Kq is the quenching rate constant of biomolecule. […] To distinguish the quenching model, additional experiments were conducted at different temperatures, as dynamic and static quenching have different temperature dependencies. With an increase in temperature, the Ksv values decrease for static quenching, and increase for dynamic quenching. […] Kq values calculated for DPPCAH and DPPCAH-Cu ranged from 5 × 10^12~7 × 10^12, and >2 × 10^10 L·mol^−1·s^−1, respectively, which further supported the static quenching model.
For the static quenching model, important binding parameters including association constant (Ka) and number of binding sites (n) were calculated from the plots using the equation: (2) log(F0−F/F0)=log Ka+nlog[Q] where, Ka is the binding constant, and n is the number of binding sites per BSA. Ka and n were obtained from the intercept and slope of the curve. […] The number of binding sites n was 1.0418 for DPPCAH and 1.1053 for DPPCAH-Cu, or approximately 1. Thus, the association of one molecule of quencher with one molecule of protein was confirmed. […] Similar results were reported from studies analyzing interaction of eupatorin with BSA [17].
The interaction of small molecules with biomacromolecule involves hydrogen bonds, electrostatic interactions, van der Waals, and hydrophobic forces. In the present study, the nature of the interaction involved in binding was determined based on thermodynamic parameters, namely, ΔH > 0 and ΔS > 0 would imply a hydrophobic interaction, ΔH < 0 and ΔS < 0 hint imply hydrogen bonding and van der Waals interactions, and ΔH< 0 and ΔS > 0 imply electrostatic force interactions. The thermodynamic parameters were obtained using the van’t Hoff Equation (3): (3) lnK=−ΔH/RT+ΔS/R where, K is the binding constant; T is the absolute temperature; and R is the universal gas constant. ΔH and ΔS were obtained from the slope and intercept of the linear van’t Hoff plot (shown in Figure 5). The free energy change (ΔG) was estimated using the following formula: ΔG = ΔH − TΔS
(§1) For the fluorescence spectra, the excitation wavelength was set at 280 nm and the emission spectra were recorded in the range of 300 to 450 nm. Both excitation and emission slit widths were adjusted to 5 nm. […] Fluorescence emission spectra were then measured on a RF-5301 Spectrofluorophotometer (Shimadzu Scientific Instruments, Kyoto, Japan) at three different temperatures (288, 303, and 310 K). In order to calculate the peak area, the integration of spectra was done in the range of 300 to 450 nm. Synchronous fluorescence spectra were recorded by simultaneously scanning the excitation and emission monochromators, in which a constant wavelength interval was maintained between them. The wavelength interval (Δλ = λem − λex) was fixed individually at 60 nm, at which characteristic information of pertaining to Trp residues was obtained.

BSA [2] = target: T1, BSA; experiment: Fluorescence resonance energy transfer (FRET) between BSA and bound agent; type: binding, bovine; settings: for r (distance from bound agent to Trp-213 residue of BSA): FRET; for R0 (critical distance at 50% energy transfer efficiency): K^2 = 2/3, N = 1.336, ф = 0.15
Experimental: Further, the distance R between the two Trp residues in BSA and the bound DPPCAH (DPPCAH-Cu) was determined using the fluorescence resonance energy transfer (FRET) method. Generally, FRET occurs whenever the emission spectrum of a fluorophore (donor) overlaps with the absorption spectrum of the bound molecule (acceptor). The efficiency of energy transfer could be used to evaluate the distance between the drug and the Trp213 residue in BSA. The relationship between the distance and efficiency of FRET is described by the following equation: (4) E=1−F/F0=R06/R06+r^6 where, r is the distance between acceptor and donor and, R0 is the critical distance when the energy transfer efficiency is 50%. The value of R0 is calculated using the following equation: (5) R=8.8×10^−25 K^2 N^−4ΦJ where, K^2 is the relative orientation of the transition dipoles of donor and acceptor (K^2 = 2/3 for a random orientation); N is the average refractive index of the medium (N = 1.336); ф is the fluorescence quantum yield of donor (ф = 0.15); J is a factor describing the spectral overlap between the emission spectrum of donor and the absorption spectrum of acceptor. J is calculated using the following equation: (6) J=∑F(λ)ε(λ)λ^4Δλ/∑F(λ)Δλ where, λ is wavelength. To calculate the distance (r), E and J value are required. These values are derived from the fluorescence data and overlapped area between the emission spectrum of BSA and the absorption spectrum of DPPCAH (or DPPCAH-Cu) as shown in Figure 6a (or Figure 6b) after normalization. The experimental value for the efficiency to be used in Equation (4) was estimated by measuring the fluorescence at equal protein-ligand concentration as described in [27].
Absorbance spectrum of DPPCAH and DPPCAH-Cu were recorded on a UV-2450 spectrophotometer (Shimadzu (Suzhou) Co. Ltd., Suzhou, China) within the UV region in the range of 300 to 450 nm. Final concentrations of the agents concentration used for measurements were 10 μM (in Tris-HCl buffer, pH 7.2).
For the fluorescence spectra, the excitation wavelength was set at 280 nm and the emission spectra were recorded in the range of 300 to 450 nm. Both excitation and emission slit widths were adjusted to 5 nm. In this assay, 4.0 mL of BSA solution at a fixed concentration of […] was accurately added into the quartz cell (1 cm path length), and was manually titrated by successive additions of 10 mM DPPCAH (or DPPCAH-Cu) at intervals of 5 min. Fluorescence emission spectra were then measured on a RF-5301 Spectrofluorophotometer (Shimadzu Scientific Instruments, Kyoto, Japan) at three different temperatures (288, 303, and 310 K). In order to calculate the peak area, the integration of spectra was done in the range of 300 to 450 nm. Synchronous fluorescence spectra were recorded by simultaneously scanning the excitation and emission monochromators, in which a constant wavelength interval was maintained between them. The wavelength interval (Δλ = λem − λex) was fixed individually at 60 nm, at which characteristic information of pertaining to Trp residues was obtained.

BSA [3] = target: T1, BSA; experiment: Synchronous fluorescence spectra of BSA (Δλ = 60 nm); type: binding, bovine; settings: CBSA = 10.0 μM, 288 K
Experimental: The bathochromic (or […]) shift noticed during fluorescence titration of BSA with the reagents, implied potent changes in the environment of Trp residues. To confirm these environmental changes, synchronous fluorescence spectra were recorded, because this technique yields information pertaining to the change in the polarity of the microregion near fluorophore molecules. By using different D-value (Δλ) between the excitation and emission wavelength, fluorescence contributors from different aromatic amino acids in the protein can be identified. When Δλ is stabilized at 60 nm, synchronous fluorescence spectroscopy provides the characteristic information specific to Trp residues. […] Although DPPCAH and DPPCAH-Cu could bind BSA, they induced different effects in BSA.
as §1

BSA [4] = target: T1, BSA; experiment: Circular dichroism spectra of BSA, secondary structure simulated with K2D2; design: species or system bovine; settings: molar ratio drug/protein = 2; CBSA = 15 μM; K2D2 simulation of CD data
Experimental: A direct calculation of secondary structures using experimental data was employed, but owing to the larger errors, the K2D2 software was used to simulate the experimental data of CD in the present study. The simulated curves are represented in the Supplementary Materials (Figure S1). In the absence of DPPCAH, the α-helix and β-sheet of BSA were 52% and 8.29% respectively.
BSA CD spectra in the range of 190–250 nm were recorded on a Chirascan (Applied Photophysics Ltd., Surrey, UK) with a 1.0 cm quartz cell in nitrogen atmosphere. BSA CD measurements in the presence and absence of DPPCAH (or DPPCAH-Cu) were performed with a scan rate of 50 nm/min. The A stock solution of 1.5 × 10^−5 M BSA was prepared in PBS. A 10 mM stock solution of DPPCAH was prepared in DMSO and the stock solution was diluted to 1.5 mM with water for measurements. Similarly, a solution of DPPCAH-Cu was prepared by mixing the DPPCAH solution with higher concentration of CuCl2 in water. The BSA concentration was held constant, while the DPPCAH concentration was varied (0, 1.5, 3.0 × 10^−5 M). The final concentration of DMSO in the measurements was less 0.5%. The buffer solution was chosen as the blank, and was manually subtracted from each spectrum during scanning. Each sample was scanned three times and the average was recorded for the CD spectrum.

HepG2 cells [5] = tested on: HepG2 cells; design: method as in PMID 26398524; settings: cited from earlier work
HepG2 cells [6] = experiment: MTT cytotoxicity assay in the absence or presence of BSA; type: cell-based; settings: agent-BSA 1:1, medium without FCS, 8 h incubation
Experimental: It has been reported that HSA could enhance the anti-proliferative activity of Dp44mT [13]. Thus, we examined the effect of BSA on both DPPCAH- and DPPCAH-Cu-mediated inhibition of HepG2 cells in which BSA was the main protein source in the cell culture.
Figure 1 Inhibition of proliferation of HepG2 cells by DPPCAH and DPPCAH-Cu in the absence or presence of BSA. Dpp = DPPCAH; * p < 0.01 (t-test).
A stock solution of DPPCAH (10 mM) was prepared in 80% DMSO, and was diluted to the required concentration with culture medium when used. The DPPCAH-Cu was prepared by mixing highly concentrated copper chloride with DPPCAH based on 1:1 molar ratio, and diluted to the required concentration with water. BSA was dissolved in PBS and was sterilized by filter sterilization method. HepG2 cells were cultured in RPMI-1640 medium supplemented with 10% fetal calf serum (FCS) and antibiotics. The cells collected in the exponential-phase (5 × 10^3 /mL) were seeded equivalently into a 96-well plate, followed by 6 h of incubation. […] The plate was read using a microplate reader (MK3; Thermo Fisher Scientific (Shanghai) Co. LTD, Shanghai, China) at 570 nm and the measurement of absorbance represented an estimate of the number of viable cells. Percent growth inhibition was defined as percent absorbance inhibition within appropriate absorbance in each cell line. […]

[7] = 303 K (first value of the printed decrease with increasing temperature)
[8] = 310 K (second value of the printed decrease with increasing temperature)

T1 sequence (P02769 25-607): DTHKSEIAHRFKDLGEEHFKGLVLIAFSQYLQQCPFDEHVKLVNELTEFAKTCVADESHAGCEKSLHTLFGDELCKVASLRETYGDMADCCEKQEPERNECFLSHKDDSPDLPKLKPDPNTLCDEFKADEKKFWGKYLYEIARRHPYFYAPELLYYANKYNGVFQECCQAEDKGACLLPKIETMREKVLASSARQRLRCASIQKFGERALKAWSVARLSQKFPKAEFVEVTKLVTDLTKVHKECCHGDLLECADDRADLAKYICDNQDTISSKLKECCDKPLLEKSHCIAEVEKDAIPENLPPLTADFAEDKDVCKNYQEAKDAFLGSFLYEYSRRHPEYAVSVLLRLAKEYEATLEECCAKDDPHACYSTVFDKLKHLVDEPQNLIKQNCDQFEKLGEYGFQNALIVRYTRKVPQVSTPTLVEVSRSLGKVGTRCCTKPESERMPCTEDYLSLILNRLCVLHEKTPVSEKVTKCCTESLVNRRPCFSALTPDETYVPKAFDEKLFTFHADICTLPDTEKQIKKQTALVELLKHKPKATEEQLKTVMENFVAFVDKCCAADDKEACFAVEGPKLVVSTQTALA

Molecule	number of binding sites n per BSA (BSA [1]; 288 K, CBSA = 10 μM)	Ksv (Stern-Volmer dynamic quenching constant) (BSA [1]; [7])	Ksv (Stern-Volmer dynamic quenching constant) (BSA [1]; [8])	Kq (quenching rate constant of biomolecule) (BSA [1])	shift of BSA fluorescence emission upon addition of the agent (BSA [1])	ΔH of binding to BSA (BSA [1]; 288 K)	ΔS of binding to BSA (BSA [1]; 288 K)	ΔG of binding to BSA (BSA [1]; 288 K)	r (distance from bound agent to Trp-213 residue of BSA) (BSA [2])	R0 (critical distance at 50% energy transfer efficiency) (BSA [2])	decrease of fluorescence intensity of Trp residue (BSA [3])	shift of maximum emission wavelength of Trp in synchronous fluorescence (BSA [3])	also measured
Copper complex of di-2-pyridylketone 2-pyridinecarboxylic acid hydrazone [DPPCAH-Cu]	1.1053	5.47 × 10^4	4.9 × 10^4	> 2e+10 L/mol/s	blue shift	-9.218 kcal/mol	−41.5 J/mol·K	-6.36 kcal/mol	2.32 nm	2.7 nm	50%	blue shift	Ka (association constant with BSA) (BSA [1]; 288 K, CBSA = 10 μM, pH 7.2 (10 mM Tris-HCl)): 6.56 ×10^4; binding energy obtained from fluorescence quenching (BSA [1]; at 288 K, quoted for comparison with docking): -7.1 kcal/mol; R0 (critical distance at 50% energy transfer efficiency) (BSA [2]; listed as BSA-DPPCAH-Cu): 2.70 nm; J (spectral overlap of BSA emission and agent absorption) (BSA [2]; calculated from spectra): 1.7e-14 cm^3·L·mol^-1; decrease in α-helix of BSA (BSA [4]): 3.5%; increase in β-sheet of BSA (BSA [4]): 1.45%; antitumor activity compared with DPPCAH (HepG2 cells [5]): significantly enhanced the antitumor activity
O=C(NN=C(c1ccccn1)c1ccccn1)c1ccccn1 [DPPCAH, di-2-pyridylketone-2-pyridine carboxylic acid hydrazone]	1.0418	7.0 × 10^4	5.08 × 10^4	5 × 10^12~7 × 10^12 L·mol^−1·s^−1	bathochromic red shift	-11.23 kcal/mol	−60.0 J/mol·K	-7.096 kcal/mol	2.03 nm	2.35 nm	55%	significant red shift	effect of BSA on growth inhibition of HepG2 cells mediated by the agent (HepG2 cells [6]): attenuated the growth inhibition; IC50 (HepG2 cells [5]; read-out: IC50, growth inhibition of HepG2 cells): 4.6 ± 0.2 µM
